{
  "source": "patent US20060223779A1",
  "about": "“Method of screening for inhibitors of human Fatty Acid-CoA Ligase 4” (priority 2000, published 2006)",
  "key": {"FACL4/COX-2 cells": {"test_system": "FACL4/COX-2 cells", "experiment": "[3H] arachidonic acid release after A23187 (pulse-chase)", "format": "cell-based, human", "settings": "A23187 5 μM", "procedure": "(§1) FIG. 5: Enzymatic “sinks” for free arachidonic acid protect against TNFα_ and calcium ionophore_mediated cell killing. (A) Determination of cell survival. The cells were induced (+Pon) or not (−Pon) for 24 hr, and TNFα (1 ng/ml) or the calcium ionophore A23187 (5 μM) was added, and the cells were incubated for another 72 hr. The surviving fraction was determined and is plotted relative to that of the same line without TNFα or A23187 treatment. Ctl denotes control cells harboring an empty vector, while FACL4/COX-2 denotes the double stable line. (B) Measurement of the free AA. The FACL4/COX-2 cells were prelabeled with [^3H] AA, induced, and stimulated with A23187 (5 μM), and [^3H] AA release was measured at the indicated time intervals. The values are from one experiment that is representative of four independent determinations.\nArachidonic acid release. Cells were plated on 6 well-plates precoated with poly-L-lysine at 8×10^5 cells per well. They were then prelabeled with [^3H] AA (0.4 μCi/ml medium) (91.8 Ci/mmol, 100 μCi/ml, NEN) for 24 hr. After a wash, serum-free DMEM supplemented with 1% BSA (fatty acid free) was added. […] The AA release stimulated by A23187 was calculated by subtracting the released AA by unstimulated cells, from that by A23187-stimulated counterparts."}, "[1]": {"test_system": "FACL4/COX-2 double stable cells", "experiment": "Cell survival of FACL4/COX-2 double stable cells after TNFα or A23187", "format": "cell-based, human", "settings": "TNFα 1 ng/ml or A23187 5 μM, 72 hr, n=3", "procedure": "as §1\nStable cell lines. The ecdysone inducible system (Invitrogen) was used to construct stable lines over-expressing human FACL4, COX-2, COX-2 mutant, and both FACL4 and COX-2. […] The cDNAs were cloned into pIND(SP1) (Neomycin^r). The cDNA constructs, or the empty vector pIND(SP1) were transfected into EcR293 cells, which were then selected in 400 μg/ml geneticin and 400 μg/ml zeocin. A number of single colonies were screened for over-expression of FACL4, COX-2 wild type, and COX-2 mutant by immunoblotting against anti-FACL4 (See Y. Cao et al., 467 FEBS Lett. 263-267 (2000)), and anti-COX-2 antibodies (a gift from Dr. Jacques Maclouf), and by measurement of the CoA ligase activity for FACL4 (See D. B. Wilson et al., 257 J. Biol. Chem. 3510-3515 (1992)), or the PGE2 secretion for COX-2 wild type (ELISA assay, Assay Design, Inc.). The double stable line was generated by stably transfecting the COX-2 stable cells with another pIND(SP1)-FACL4 cDNA construct, in which the FACL4 cDNA was cloned into a pIND(SP1) (hygromycin^r) vector. The cells were selected in 400 μg/ml geneticin, 400 μg/ml zeocin, and 50 μg/ml hygromycin B. The positive colonies were screened as described above.\n(§2) Cell survival. Cell viability was determined with the crystal violet staining (See M. Hayakawa et al., 268 J. Biol. Chem. 11290-11295 (1993)."}, "293 cells [2]": {"test_system": "293 cells", "experiment": "Lipid peroxidation assay (MDA and 4-HNE) in 293 cells", "format": "cell-based, human", "procedure": "FIG. 6: Cells exposed to AA show increased lipid peroxidation; apoptosis is blocked by antioxidants and Bcl-2. (A) The level of lipid oxidation products. The 293 cells were treated with AA at the indicated concentrations for 48 hr. The data presented are from one experiment that is representative of two independent experiments. […] Antioxidants were applied to 293 cells at the indicated concentration for 1 hr, and then AA (200 μM) was added. Apoptosis was determined after 44 hr and is shown relative to the level in control cells. […] Cells were transfected with the empty vector (Ctl) or with a cDNA encoding Bcl-2 and then were exposed to AA (300 μM). The level of apoptosis was determined after 44 hr. The values shown indicate the apoptosis level relative to control cells, and represent the means of triplicate determinations (P<0.05). The expression of Bcl-2 was detected by Western blotting. (D) The level of Bcl-2 expression in the stable cells. The stably transfected cells were induced, or not, with ponasterone for 24 or 48 hr. Cell lysates were blotted with an antibody to Bcl-2. Normalization was performed with an anti-β-actin antibody.\nLipid peroxidation assay. Cells were plated and treated with AA for 48 hr. […] The cellular malondialdehyde (MDA) and 4-hydroxynonenal (4-HNE) levels were determined with the lipid peroxidation assay kit (Calbiochem)."}, "caspase 3": {"test_system": "caspase 3", "experiment": "Caspase 3-like activity in AA-treated cells", "format": "cell-based", "settings": "not shown"}, "COX-2 stable 293 cells": {"test_system": "COX-2 stable 293 cells", "experiment": "Apoptosis in stably transfected 293 cells with inducible COX-2 over-expression", "format": "cell-based, human", "procedure": "(A) Conditional expression level of FACL4 and COX-2 in stably transfected lines. Cells were treated with (+) or without (−) ponasterone (1 μg/ml) for 48 hr, and Western blotting was carried out with anti-FACL4 and anti-COX-2 antibodies, respectively. The loading was normalized with an anti-β actin antibody (ICN Biomedicals). […] The 293 cells stably transfected with an empty control vector (Ctl), FACL4 cDNA, COX-2 cDNA, and both FACL4 and COX-2 cDNAs were uninduced (−Pon) or induced for over-expression (+Pon) as in A. AA (300 μM) was added after 24 hr of induction and apoptosis was determined 44 hr later. […] The plot is a comparison of the relative apoptosis levels among the stable lines and is representative of three independent experiments. The values shown are the averages of triplicate determinations. […] Cells were uninduced (−Pon) or induced for over-expression as above. […] COX inhibitors were administered 6 hr later as indicated. AA (300 μM) was then added after 2 hr and apoptosis was determined 44 hr later. The plot is prepared as in B, and is a representative result from three independent experiments, in which triplicates were performed. Wt=wild-type, Mut=mutant, Met=50 μM 6-methoxy-2-naphthyl acetic acid, Indo=10 μM indomethacin. […] The COX-2, FACL4/COX-2 stable and control cells carrying an empty vector were induced for 48 hr, washed and incubated with 20 μM AA at 37° C. for 30 min. The amount of PGE2 synthesized was determined by ELISA. […] (E) The levels of free AA in the stable lines. The [^3H]\n(§3) Cell Death Detection ELISA. Cells were plated on 96 well-plates at 1×10^4 cells per well. AA was applied and apoptotic death was determined after 44 hr with the Cell Death Detection ELISA (Boehringer Mannheim).\nStable cell lines. The ecdysone inducible system (Invitrogen) was used to construct stable lines over-expressing human FACL4, COX-2, COX-2 mutant, and both FACL4 and COX-2. […] The cDNAs were cloned into pIND(SP1) (Neomycin^r). The cDNA constructs, or the empty vector pIND(SP1) were transfected into EcR293 cells, which were then selected in 400 μg/ml geneticin and 400 μg/ml zeocin. […] The double stable line was generated by stably transfecting the COX-2 stable cells with another pIND(SP1)-FACL4 cDNA construct, in which the FACL4 cDNA was cloned into a pIND(SP1) (hygromycin^r) vector. The cells were selected in 400 μg/ml geneticin, 400 μg/ml zeocin, and 50 μg/ml hygromycin B. The positive colonies were screened as described above."}, "293 cells [3]": {"test_system": "293 cells", "experiment": "Apoptosis by Cell Death Detection ELISA in 293 cells", "format": "cell-based, human", "settings": "44 hr", "procedure": "(§4) FIG. 3: Arachidonic acid induces apoptosis via activation of caspase 3. (A) Determination of cell survival. AA was added to 293 cells at the indicated concentrations and the surviving fraction of cells was determined after 44 hr. The values shown are relative to the viability of cells that were not exposed to AA. (B) Increased apoptosis in cells exposed to AA. Cells were treated with AA (300 μM) or palmitic acid (300 μM) under the same conditions as in A, and then apoptosis was detected with an ELISA. The mean values from triplicate determinations are shown. […] The 293 cells were treated with AA (300 μM; +AA) or vehicle alone (−AA) for 44 hr. The nuclei were stained with DAPI, and DNA strand breaks in individual cells were detected with a fluorescent TUNEL assay. The upper panels are the same field of cells (−AA) photographed under UV (left panels) and FITC filters (right panels). The lower panels illustrate apoptotic cells (+AA). The magnification is 80×. (D) Immunostaining with an anti-active caspase 3 antibody. Upper panels, control cells (−AA); lower panels, cells exposed to 300 μM AA. Left panels, DAPI staining; right panels, immunostaining with an antibody selective for active caspase 3. The magnification is 100×. […] The 293 cells were preincubated with caspase inhibitors (including DMQD, a caspase 3 inhibitor, and YVAD, a caspase 1 and 4 inhibitor (Peptide Institute)) for 1 hr at the indicated concentrations, AA (300 μM) was added, and apoptosis was determined 44 hr later. The values represent the means from triplicate determinations.\nas §3"}, "293 cells [4]": {"test_system": "293 cells", "experiment": "Cell survival (crystal violet staining) in 293 cells", "format": "cell-based, human", "settings": "293 cells, increasing exogenous AA concentration, 44 hr", "procedure": "as §4, §2"}},
  "data": [
    {"compound": "CNc1ccc2oc(C[C@H]3O[C@@]4(CC[C@H]3C)O[C@H]([C@H](C)C(=O)c3ccc[nH]3)[C@H](C)C[C@H]4C)nc2c1C(=O)O", "note": "[A23187]", "values": [
      {"measurement": "AA release to the medium in response to A23187, control cells", "setting": "FACL4/COX-2 cells; control cells", "result": "released a large amount of AA"},
      {"measurement": "AA release to the medium in response to A23187, over-expression of FACL4 and COX-2", "setting": "FACL4/COX-2 cells; induced FACL4/COX-2 cells", "result": "completely abolished"},
      {"measurement": "surviving fraction, induced cells", "setting": "[1]; FACL4/COX-2 double stable cells induced with ponasterone", "result": 67.8, "unit": "%"},
      {"measurement": "surviving fraction, uninduced cells", "setting": "[1]; FACL4/COX-2 double stable cells without induction", "result": 37.8, "unit": "%"}
    ]},
    {"compound": "CCCCC/C=C\\C/C=C\\C/C=C\\C/C=C\\CCCC(=O)O", "note": "[AA, Arachidonic acid]", "values": [
      {"measurement": "formation of lipid peroxidation products", "setting": "293 cells [2]; 293 cells exposed to AA, 48 hr", "result": "enhanced formation of malondialdehyde and 4-hydroxy-2(E)-nonenal"},
      {"measurement": "maximal increase in caspase 3-like activity compared to control cells", "setting": "caspase 3", "result": "~4.5", "unit": "fold"},
      {"measurement": "time of peak caspase 3-like activity", "setting": "caspase 3", "result": 17, "unit": "h"},
      {"measurement": "fold-increase in apoptosis after fatty acid treatment", "setting": "COX-2 stable 293 cells; 200 μM", "result": 8.5, "unit": "fold"},
      {"measurement": "reduction of fatty acid-induced apoptosis by inducing COX-2 over-expression", "setting": "COX-2 stable 293 cells; COX-2 over-expression induced, n=3", "result": 36.7, "unit": "%"},
      {"measurement": "apoptosis (mono- and oligo-nucleosomes) over the control", "setting": "293 cells [3]; 293 cells, 300 μM", "result": 18, "unit": "fold"},
      {"measurement": "cell survival, % of the control", "setting": "293 cells [4]", "result": 23, "unit": "%"}
    ]},
    {"compound": "z-DMQD-fmk", "values": [
      {"measurement": "effect on generation of peroxidized lipids", "setting": "293 cells [2]; AA-exposed cells, not shown", "result": "did not block the generation of peroxidized lipids"},
      {"measurement": "blocking of AA-induced apoptosis by caspase inhibitor", "setting": "293 cells [3]; 293 cells preincubated 1 hr with inhibitor, AA 300 μM", "result": "significantly blocked apoptosis"}
    ]}
  ]
}
